Data: patent publication US6359138B1, “4-hydroxy-piperidine derivatives” (Hoffmann-La Roche Inc., priority 1996, dated 2002)
Counter-ions that a name gives are not always drawn. Marks after values point to notes of the source that are not given here.

Legend:
[1] = target: T1, NR1C + NR2A NMDA receptor (Rattus norvegicus, UniProt P35439+Q00959); assay: Electrophysiology on recombinant NMDA receptors, NR1C + NR2A in Xenopus oocytes; format: cell-based; details: 10 μM compound; Xenopus laevis oocytes, voltage clamp −80 mV, 2.7 μM Glu plus 0.9 μM Gly; mean of 4-6 oocytes
T1 construct: expressed in transfected cells; host or cells: Xenopus laevis oocytes (nuclear injection of pBC/CMV plasmids)
T1 sequence (Q00959 23-1464, other chains not shown): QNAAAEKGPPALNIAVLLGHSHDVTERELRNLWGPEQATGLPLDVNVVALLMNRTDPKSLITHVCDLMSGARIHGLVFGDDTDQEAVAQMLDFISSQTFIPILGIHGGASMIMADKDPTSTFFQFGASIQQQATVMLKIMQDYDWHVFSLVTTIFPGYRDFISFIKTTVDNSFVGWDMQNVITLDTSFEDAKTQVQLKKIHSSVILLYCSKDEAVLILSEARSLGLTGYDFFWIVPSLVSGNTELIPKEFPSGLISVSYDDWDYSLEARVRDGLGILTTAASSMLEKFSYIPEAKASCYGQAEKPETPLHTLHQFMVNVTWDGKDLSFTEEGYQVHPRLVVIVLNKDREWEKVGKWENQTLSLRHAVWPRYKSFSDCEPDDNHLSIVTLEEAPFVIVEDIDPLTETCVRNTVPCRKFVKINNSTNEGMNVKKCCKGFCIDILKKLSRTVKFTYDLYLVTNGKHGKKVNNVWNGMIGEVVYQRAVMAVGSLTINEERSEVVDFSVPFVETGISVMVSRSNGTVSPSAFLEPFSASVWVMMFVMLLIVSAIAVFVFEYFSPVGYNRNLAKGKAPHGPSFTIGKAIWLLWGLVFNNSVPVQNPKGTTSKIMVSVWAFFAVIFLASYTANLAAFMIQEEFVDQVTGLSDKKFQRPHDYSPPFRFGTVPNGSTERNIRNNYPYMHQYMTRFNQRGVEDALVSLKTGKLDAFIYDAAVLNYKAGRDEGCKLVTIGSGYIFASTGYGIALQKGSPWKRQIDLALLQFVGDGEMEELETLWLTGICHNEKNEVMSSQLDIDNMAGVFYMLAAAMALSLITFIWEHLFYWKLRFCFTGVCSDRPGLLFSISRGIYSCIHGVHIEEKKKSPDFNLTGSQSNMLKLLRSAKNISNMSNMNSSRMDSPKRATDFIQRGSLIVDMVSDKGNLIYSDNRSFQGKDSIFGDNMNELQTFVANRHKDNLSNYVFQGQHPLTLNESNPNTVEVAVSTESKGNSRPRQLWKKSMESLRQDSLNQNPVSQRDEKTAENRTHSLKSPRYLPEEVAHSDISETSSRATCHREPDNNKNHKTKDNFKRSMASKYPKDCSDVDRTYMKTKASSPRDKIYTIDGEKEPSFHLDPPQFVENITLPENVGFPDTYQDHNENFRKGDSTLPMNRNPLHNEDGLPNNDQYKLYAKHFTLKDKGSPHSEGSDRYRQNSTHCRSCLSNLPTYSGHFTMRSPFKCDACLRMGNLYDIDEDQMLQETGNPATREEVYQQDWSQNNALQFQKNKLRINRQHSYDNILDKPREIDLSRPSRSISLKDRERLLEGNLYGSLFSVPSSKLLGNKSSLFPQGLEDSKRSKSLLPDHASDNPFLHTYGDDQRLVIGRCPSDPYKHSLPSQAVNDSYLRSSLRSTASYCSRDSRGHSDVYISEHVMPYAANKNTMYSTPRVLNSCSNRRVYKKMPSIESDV
Description: (§1) Electrophysiology on Recombinant NMDA Receptors
(§2) cDNA clones coding for the subunits NR1C and NR2A of the NMDA receptor (see Hollmann and Heinemann, 1994, Annu. Rev. Neurosci. 17:31 for nomenclature of NMDA receptor subunits) were isolated from a rat brain λgt11 cDNA library as published elsewhere (Sigel et al., 1994, J. Biol. Chem. 269:8204). The clone for the subunit NR2B of the rat brain NMDA receptor was obtained from S. Nakanishi (Kyoto, Japan). The cDNAs encoding rat NR1C, NR2A and NR2B were subcloned into the expression vector pBC/CMV (Bertocci et al., 1991, Proc. Natl. Acad. Sci. U.S.A. 88:1416), placing transcription of the cDNA under control of the human cytomegalovirus promoter. CsCl-purified expression plasmids were mixed in a 1:3 ratio of NR1C:NR2A or NR1C:NR2B in injection buffer (88 mM NaCl, 1 mM KCl, 15 mM HEPES, at pH 7.0). Oocytes of South African frogs (Xenopus laevis) were used for expressing either a combination of the NR1C and NR2A subunits or the NR1C and NR2B subunits. 12 to 120 pg of a 1:3 (NR1C:NR2B) mixture of the respective cDNA species were injected into the nucleus of every oocyte. On the following two days the ion current through the NMDA receptor channels was measured in voltage clamp experiments for the methods of cDNA expression in oocytes and voltage-clamping (see, e.g., Bertrand et al., 1991, Methods in Neurosciences 4:174). The membrane potential was clamped to −80 mV and the receptors were activated by applying a modified Ringer,s solution containing the NMDA-receptor agonists L-glutamate (Glu) and glycine (Gly). Different agonist concentrations were chosen for either subunit combination to account for the different agonist sensitivities of the two types of receptors (2.7 μM Glu plus 0.9 μM Gly for NR1C+NR2A and 1.3 μM Glu plus 0.07 μM Gly for NR1C+NR2B). The agonists were applied for 15 s intervals once every 2.5 min by rapid superfusion of the oocyte with agonist containing solution and the amplitude of the agonist-evoked current was measured immediately before the end of each application. After a series of initial control applications the antagonist to be tested was added to both, the basal Ringer,s and the agonist containing solution. The antagonist concentration applied to oocytes expressing the NR2A subunit was 10 μmol/l, whereas 0.1 μtmol/ were applied to the NR2B expressing oocytes. Four to six oocytes were tested for every compound and NMDA receptor subtype. Oocytes were exposed to the compounds for 5 to 30 min depending on the time needed for reaching an equilibrium block of the NMDA receptor current. For every oocyte the decrease of the current amplitude was expressed as a percentage of the control current measured before application of the compound. Figures in the table are arithmetic mean values of these percentage values.

[2] = target: T2, NR1C + NR2B NMDA receptor (Rattus norvegicus, UniProt P35439+Q00960); assay: Electrophysiology on recombinant NMDA receptors, NR1C + NR2B in Xenopus oocytes; format: cell-based; details: 0.1 μM compound; Xenopus laevis oocytes, voltage clamp −80 mV, 1.3 μM Glu plus 0.07 μM Gly; mean of 4-6 oocytes
T2 construct: expressed in transfected cells; host or cells: Xenopus laevis oocytes (nuclear injection of pBC/CMV plasmids)
T2 sequence (Q00960 27-1482, other chains not shown): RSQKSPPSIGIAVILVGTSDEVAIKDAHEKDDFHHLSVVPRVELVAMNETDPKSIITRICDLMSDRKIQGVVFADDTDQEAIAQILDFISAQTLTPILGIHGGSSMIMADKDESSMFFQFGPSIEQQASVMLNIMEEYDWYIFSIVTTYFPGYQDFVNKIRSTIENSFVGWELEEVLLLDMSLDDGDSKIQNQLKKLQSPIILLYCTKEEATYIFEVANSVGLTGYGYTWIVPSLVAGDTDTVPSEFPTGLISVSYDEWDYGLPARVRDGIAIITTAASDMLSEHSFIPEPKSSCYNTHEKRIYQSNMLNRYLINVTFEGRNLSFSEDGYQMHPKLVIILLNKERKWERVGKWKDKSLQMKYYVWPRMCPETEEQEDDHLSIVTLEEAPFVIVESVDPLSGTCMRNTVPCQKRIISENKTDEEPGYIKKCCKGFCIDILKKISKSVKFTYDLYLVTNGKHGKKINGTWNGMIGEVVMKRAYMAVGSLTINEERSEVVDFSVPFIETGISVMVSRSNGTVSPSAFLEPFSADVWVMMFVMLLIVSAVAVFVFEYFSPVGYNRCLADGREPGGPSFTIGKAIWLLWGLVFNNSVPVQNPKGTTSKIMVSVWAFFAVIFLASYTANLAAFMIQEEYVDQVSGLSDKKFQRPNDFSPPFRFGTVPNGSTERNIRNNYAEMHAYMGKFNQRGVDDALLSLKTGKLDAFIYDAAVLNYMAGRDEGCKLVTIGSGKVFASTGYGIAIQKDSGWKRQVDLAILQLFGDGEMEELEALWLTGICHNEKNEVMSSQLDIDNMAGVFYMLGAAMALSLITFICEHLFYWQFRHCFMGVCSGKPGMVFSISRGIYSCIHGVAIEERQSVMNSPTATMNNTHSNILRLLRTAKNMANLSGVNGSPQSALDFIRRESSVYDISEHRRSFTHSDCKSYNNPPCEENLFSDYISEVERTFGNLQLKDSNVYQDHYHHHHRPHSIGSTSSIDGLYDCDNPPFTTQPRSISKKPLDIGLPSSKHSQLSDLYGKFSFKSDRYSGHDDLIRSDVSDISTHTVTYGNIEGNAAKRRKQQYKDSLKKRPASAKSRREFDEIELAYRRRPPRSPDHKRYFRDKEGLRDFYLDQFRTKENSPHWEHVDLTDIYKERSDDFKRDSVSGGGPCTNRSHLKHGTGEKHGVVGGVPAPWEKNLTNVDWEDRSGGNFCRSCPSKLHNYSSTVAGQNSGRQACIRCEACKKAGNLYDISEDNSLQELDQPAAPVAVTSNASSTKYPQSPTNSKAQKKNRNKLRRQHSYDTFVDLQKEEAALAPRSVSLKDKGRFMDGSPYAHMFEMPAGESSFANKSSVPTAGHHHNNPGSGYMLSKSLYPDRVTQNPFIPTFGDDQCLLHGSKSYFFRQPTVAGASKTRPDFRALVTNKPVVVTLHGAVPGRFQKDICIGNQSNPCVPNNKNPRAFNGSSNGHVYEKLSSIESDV
Description: as §1
as §2, with “Figures in the table are arithmetic mean values of these percentage values.” left out

[3] = target: T3, NMDA receptor (3H-Ro 25-6981 binding, rat brain membranes) (Rattus norvegicus, UniProt P35439+Q00960); assay: 3H-Ro 25-6981 binding; details: 5 nM 3H-Ro 25-6981, 2 hours at 4° C.
T3 construct: Membranes were prepared by homogenization of the whole brain minus cerebellum and medulla oblongata; from tissue; host or cells: rat whole brain minus cerebellum and medulla oblongata, membranes
T3 sequence (Q00960 27-1482, other chains not shown): as above
Procedure: 3H-Ro 25-6981 Binding (Ro 25-6981 is [R-(R*,S*)]-a-(4-Hydroxy-phenyl)-b-methyl-4-(phenyl-methyl)-1-piperidine Propanol)
Male Füillinsdorf albino rats weighing between 150-200 g were used. Membranes were prepared by homogenization of the whole brain minus cerebellum and medulla oblongata with a Polytron (10.000 rpm, 30 seconds), in 25 volumes of a cold Tris-HCl 50 mM, EDTA 10 mM, pH 7.1 buffer. The homogenate was centrifuged at 48.000 g for 10 minutes at 4° C. The pellet was resuspended using the Polytron in the same volume of buffer and the homogenate was incubated at 37° C. for 10 minutes. After centrifugation the pellet was homogenized in the same buffer and frozen at −80° C. for at least 16 hours but not more than 10 days. For the binding assay the homogenate was thawed at 37° C., centrifuged and the pellet was washed three times as above in a Tris-HCl 5 mM, pH 7.4 cold buffer. The final pellet was resuspended in the same buffer and used at a final concentration of 200 μg of protein/ml. 3H-Ro 25-6981 binding experiments were performed using a Tris-HCl 50 mM, pH 7.4 buffer. For displacement experiments 5 nM of 3H-Ro 25-6981 were used and non specific binding was measured using 10 μM of tetrahydroisoquinoline and usually it accounts for 10% of the total. The incubation time was 2 hours at 4° C. and the assay was stopped by filtration on Whatmann GF/B glass fiber filters (Unifilter-96, Packard, Zütrich, Switzerland). The filters were washed 5 times with cold buffer. The radioactivity on the filter was counted on a Packard Top-count microplate scintillation counter after addition of […] of microscint 40 (Canberra Packard S. A., Zürich, Switzerland).
The effects of compounds were measured using a minimum of 8 concentrations and repeated at least once. The pooled normalized values were analyzed using a non-linear regression calculation program which provide IC50 with their relative upper and lower 95% confidence limits (RS1, BBN, USA).

[4] = target: 3H-Prazosine binding (rat brain membranes); assay: 3H-Prazosine binding; details: 0.2 nM 3H-Prazosine, 30 minutes at room temperature
Procedure: Male Füllinsdorf albino rats weighing between 150-200 g were used. Membranes were prepared by homogenization of the whole brain minus cerebellum and medulla oblongata with a Plytron (10.000 rpm, 30 seconds), in 25 volumes of a cold Tris-HCl 50 mM, EDTA 10 mM, pH 7.1 buffer. The homogenate was centrifuged at 48.000 g for 10 minutes at 4° C. The pellet was resuspended using the Polytron in the same volume of buffer and the homogenate was incubated at 37° C. for 10 minutes. After centrifugation the pellet was homogenized in the same buffer and frozen at −80° C. for at least 16 hours but not more than 10 days. For the binding assay the homogenate was thawed at 37° C., centrifuged and the pellet was washed three times as above in a Tris-HCl 5 mM, pH 7.4 cold buffer. The final pellet was resuspended in the same buffer and used at a final concentration of 200 μg of protein/ml.
3H-Prazosine binding experiments were performed using a Tris-HCl 50 mM, pH 7.4 buffer. For displacement experiments 0.2 nM of 3H-Prazosine were used and non specific binding was measured using 100 μM of Chlorpromazine. […] The radioactivity on the filter was counted on a Packard Top-count microplate scintillation counter after addition of […] of microscint 40 (Canberra Packard S. A., Zürich, Switzerland). The effects of compounds were measured using a minimum of 8 concentrations and repeated at least once. […]

Row | Structure (SMILES) | melting point | Electrophysiology NR1C + NR2A % block by 10 μM [1] | also measured
1 | Oc1ccc2c(c1)CC[C@H](CN1CCC(O)(Cc3ccccc3)CC1)[C@H]2O (racemic) [Example 29, (1RS,2RS)-2-(4-benzyl-4-hydroxy-piperidin-1-yl-methyl)-6-hydroxy-1,2,3,4-tetrahydro-naphthalen-1-ol] | 94 to 98 °C |  | 
2 | CC(=O)Nc1ccc2c(c1)CCC(CN1CCC(O)(Cc3ccccc3)CC1)C2=O.Cl (racemic) | 123 to 126 °C |  | 
3 | Cc1ccc(CC2(O)CCN(CC3Cc4cc(O)ccc4C3O)CC2)cc1 (stereo not drawn) [Example 16, (1RS,2RS) and (1RS, 2SR)-2-[4-Hydroxy-4-(4-methyl-benzyl)-piperidine-1-ylmethyl]-indan-1,5-diol Fumarate Salt] |  | 6% | 
4 | Cc1ccc(CC2(O)CCN(C[C@@H]3Cc4cc(O)ccc4O3)CC2)cc1.Cl [Example 13, (S)-1-(5-Hydroxy-2,3-dihydro-benzofuran-2-ylmethyl)-4-(4-methyl-benzyl)-piperidin-4-ol hydrochloride] |  | 8% | Electrophysiology NR1C + NR2B % block by 0.1 μM [2]: 93%
5 | Cc1ccc(CC2(O)CCN(CC3=Cc4ccc(O)cc4CC3)CC2)cc1 [Example 1, 1-(6-Hydroxy-3,4-dihydro-naphthalene-2-ylmethyl)-4-(4-methyl-benzyl)-piperidine-4-ol] |  | 65* % | IC50 [3]: 0.04 µM; Electrophysiology NR1C + NR2B % block by 0.1 μM [2]: 72%
6 | CS(=O)(=O)Nc1ccc2c(c1)CC(CN1CCC(O)(Cc3ccc(Cl)cc3)CC1)O2 (racemic) [Example 22, Hydrochloride] |  |  | IC50 [3]: 0.04 µM
7 | Cl.Oc1ccc2c(c1)C[C@@H](CN1CCC(O)(Cc3ccc(Cl)cc3)CC1)O2 [Example 14, (S)-1-(5-Hydroxy-2,3-dihydro-benzofuran-2-ylmethyl)-4-(4-chloro-benzyl)-piperidin-4-ol hydrochloride] |  | 9% | Electrophysiology NR1C + NR2B % block by 0.1 μM [2]: 90%
8 | CCc1ccc(CC2(O)CCN(CC3Cc4cc(O)ccc4O3)CC2)cc1.Cl (racemic) [Example 7, (RS)-4-(4-ethyl-benzyl)-1-(5-hydroxy-2,3-dihydro-benzofuran-2-ylmethyl)-piperidin-4-ol hydrochloride] |  | 12% | Electrophysiology NR1C + NR2B % block by 0.1 μM [2]: 89%
9 | Cc1ccc(CC2(O)CCN(C[C@H]3CCc4cc(O)ccc4[C@@H]3O)CC2)cc1 (racemic) [Example 27, (1RS, 2RS)-1-(1,6-Dihydroxy-1,2,3,4-tetrahydro-naphthalen-2-ylmethyl)-4-(4-methyl-benzyl)-piperidin-4-ol fumarate salt] |  |  | IC50 [3]: 0.026 µM; IC50 [4]: 6 µM

More lines, main results first:

Row | melting point | Structure (SMILES) | Electrophysiology NR1C + NR2A % block by 10 μM [1] | also measured
10 | 88 to 90 °C | Cc1ccc(CC2(O)CCN(CC3Cc4ccc(O)cc4C3)CC2)cc1.Cl (racemic) |  | 
11 | 203 to 205 °C | Cc1ccc(CC2(O)CCN(CC3Cc4ccc(O)cc4O3)CC2)cc1.Cl (racemic) |  | 
12 | 214 °C | Cc1ccc(CC2(O)CCN(Cc3cc4ccc(O)cc4o3)CC2)cc1.Cl |  | 
13 | 90 to 94 °C | Cc1ccc(CC2(O)CCN(CC3Cc4cc(O)ccc4N3)CC2)cc1 (racemic) [Example 21, (RS)-2-[4-Hydroxy-4-(4-methyl-benzyl)-piperidin-1-ylmethyl]-2,3-dihydro-1H-indol-5-ol] |  | 
14 | 154 to 157 °C | Cc1ccc(CC2(O)CCN(CC3=Cc4ccc(O)cc4C3)CC2)cc1 [Example 20, 1-(6-Hydroxy-1H-inden-2-ylmethyl)-4-(4-methyl-benzyl)-piperidin-4-ol] |  | 
